The source of these data is patent US9221833B2, “Antiviral compounds” (GILEAD PHARMASSET LLC, priority 2011, dated 2015).

In data set [1] the test system is genotype 2a JFH-1 replicon (L31 present in NS5A). Kind of data set: microbe, parasite or virus in culture. Format: cell-based, HCV.
Data set [2] concerns genotype 1b Con1 replicon. The data set is described as follows: microbe, parasite or virus in culture. In kind it is cell-based, HCV.
The subject of data set [3] is genotype 2b MD2b-1 strain NS5A gene (M31 present). The data set is described as follows: microbe, parasite or virus in culture. Format: cell-based, HCV.
The test system of the next data set is Q30R in genotype 1a NS5A. Kind of data set: Antiviral potency against resistance mutant, 1a Pi-Rluc replicon in Huh-7-derived cured-51 cells. In kind it is cell-based, HCV. On the technique in general: In antiviral work, replicon cells carry a viral genome segment that copies itself.
A short description of data set [4]: IV and PO Single Dose Pharmacokinetic Studies in SD Rats. Format: in vivo, male Sprague-Dawley (SD) rats. As to conditions: oral bioavailability, PO 2 mg/kg vs IV infusion 1 mg/kg. The protocol: IV and PO Single Dose Pharmacokinetic Studies in SD Rats: The pharmacokinetics of selected compounds was characterized in male Sprague-Dawley (SD) rats (250-300g). […] The intravenous (IV) dosing vehicle was 5% ethanol, 35% polyethylene glycol 400 (PEG 400) and 60% water pH 2.0. […] Serial blood samples (approximately 0.3 mL each) were collected from jugular vein or other suitable vein at specified time points. […] The blood samples were collected into Vacutainer™ tubes containing EDTA-K3 as the anti-coagulant and were centrifuged at approximately 4° C. to obtain plasma. The plasma samples were stored at −20° C. until analysis by LC/MS/MS. […] Standard curve and quality control samples were prepared in male rat plasma and processed in the same way as the test samples to generate quantitative data. […] Values below the lower limit of quantification (LLOQ) were assigned a value of zero if predose and treated as missing thereafter. Area under the curve (AUC) was calculated using the linear trapezoidal rule. The oral bioavailability (% F) was determined by comparison of the area under the curve (AUC) of the compound and/or a metabolite generated in plasma following oral administration to that generated following intravenous administration.

Data set [5] has as its system genotype 2a J6 strain NS5A gene (M31 present). Kind of data set: Replicon assay, NS5A chimeric 2a JFH-1 replicon with 2a J6 NS5A, transient (t) or stable (s), Huh-Lunet cells. Format: cell-based, HCV.
Data set [6] has as its system genotype 3a S52 strain NS5A gene. The data set is described as follows: Replicon assay, NS5A chimeric 1b Con1 replicon with 3a NS5A, transiently transfected Huh-Lunet cells. Format: cell-based, HCV.
The subject of a further data set is genotype 1a H77 replicon. Kind of data set: microbe, parasite or virus in culture. Format: cell-based, HCV. As to conditions: Hepatitis C virus.
Data set [7] concerns genotype 4a ED43 strain NS5A gene. The data set is described as follows: Replicon assay, NS5A chimeric 1b Con1 replicon with 4a NS5A, transiently transfected Huh-Lunet cells. In kind it is cell-based, HCV. As to conditions: Hepatitis C virus.
Data set [8] deals with genotype 2a JFH-1 replicon (L31 present in NS5A). Kind of data set: microbe, parasite or virus in culture. In kind it is cell-based, HCV. As to conditions: Hepatitis C virus, read-out: 2a JFH.

Molecules are shown by their SMILES. Like-named read-outs stand apart in the source and are kept apart here.

As to `COC[C@H]1C[C@@H](c2nc3ccc4cc5c(cc4c3[nH]2)OCc2cc(-c3cnc([C@@H]4CC[C@H](C)N4C(=O)[C@@H](NC(=O)OC)C(C)C)[nH]3)ccc2-5)N(C(=O)[C@@H](NC(=O)OC)[C@@H](C)OC)C1` [Example OM, Methyl {(2S)-1-[(2S,4S)-2-(5-{2-[(2S,5S)-1-{(2S,3R)-3-methoxy-2-[(methoxycarbonyl)amino]butanoyl}-4-(methoxymethyl)pyrrolidin-2-yl]-1,11-dihydroisochromeno[4′,3′:6,7]naphtho[1,2-d]imidazol-9-yl}-1H-imidazol-2-yl)-5-methylpyrrolidin-1-yl]-3-methyl-1-oxobutan-2-yl}carbamate], the EC50 was under 1 nM in data set [1] (genotype 2a JFH replicon, EC50 range class, read-out: 2a JFH); 0.009 nM in data set [1] (genotype 2a JFH replicon, read-out: 2a JFH); 0.019 nM in data set [2] (read-out: 1b); under 1 nM in data set [3] (genotype 2b, EC50 range class, transiently transfected cells (t), if unavailable stably replicating cells (s), read-out: 2b); 0.054 nM in [3] (stably replicating cells (s), read-out: 2b (s)); 0.053 nM in [3] (transiently transfected cells (t), read-out: 2b (t)). The EC50 with Q30R in genotype 1a NS5A (genotype 1a Q30R resistance mutant, EC50 range class, read-out: 1a Q30R) was under 1 nM; in the data set with Q30R in genotype 1a NS5A (genotype 1a Q30R resistance mutant, read-out: 1a Q30R), 0.035 nM; in [5] (genotype 2a J6, EC50 range class, transiently transfected cells (t), if unavailable stably replicating cells (s), read-out: 2a J6), under 1 nM; in data set [5] (transiently transfected cells (t), read-out: 2a J6 (t)) it was 0.045 nM; in data set [6] (genotype 3a, EC50 range class, read-out: 3a) it was under 1 nM; in data set [6] (genotype 3a, read-out: 3a), 0.035 nM. Further, the “Rat % F” value in data set [4] amounted to 12.2%.
`COC(=O)NC(C(=O)N1CCCC1c1nc2ccc3cc4c(cc3c2[nH]1)OCc1cc(-c2cnc(C3CCCN3C(=O)C(NC(=O)O)C(C)C)[nH]2)ccc1-4)c1ccccc1` (stereo not shown) [Example LQ, [1-(2-{5-[2-(1-{[(Methoxycarbonyl)amino](phenyl)acetyl}pyrrolidin-2-yl)-1,11-dihydroisochromeno[4′,3′:6,7]naphtho[1,2-d]imidazol-9-yl]-1H-imidazol-2-yl}pyrrolidin-1-yl)-3-methyl-1-oxobutan-2-yl]carbamic acid]: the EC50 with genotype 1a H77 replicon (read-out: 1a) is under 1 nM; with genotype 1a H77 replicon (read-out: 1a (nM)), 0.022 nM; in [1] (Hepatitis C virus, read-out: 2a JFH (nM)), 0.004 nM; in data set [2] (Hepatitis C virus, read-out: 1b (nM)), 0.02 nM; in data set [3] (Hepatitis C virus, read-out: 2b) it was under 1 nM; in data set [3] (Hepatitis C virus, read-out: 2b (s) (nM)), 0.035 nM. Also, the EC50 is 0.012 nM in data set [3] (Hepatitis C virus, read-out: 2b (t) (nM)); under 1 nM in the data set with Q30R in genotype 1a NS5A (Hepatitis C virus, read-out: 1a Q30R); 0.135 nM in the data set with Q30R in genotype 1a NS5A (Hepatitis C virus, read-out: 1a Q30R (nM)); under 1 nM in data set [7] (read-out: 4a); 0.02 nM in data set [7] (read-out: 4a (s) (nM)); 0.008 nM in [7] (read-out: 4a (t) (nM)). Besides, the EC50 was under 1 nM in [8]; under 1 nM in data set [5] (Hepatitis C virus, read-out: 2a J6); 0.543 nM in [5] (Hepatitis C virus, read-out: 2a J6 (s) (nM)); 0.134 nM in data set [5] (Hepatitis C virus, read-out: 2a J6 (t) (nM)); under 1 nM in data set [6] (Hepatitis C virus, read-out: 3a); 0.005 nM in data set [6] (Hepatitis C virus, read-out: 3a (nM)).
